Article PMC5124248, “Antitumor activity of TY-011 against gastric cancer by inhibiting Aurora A, Aurora B and VEGFR2 kinases” (Journal of Experimental & Clinical Cancer Research : CR, 2016)

Tested on: human MGC-803 xenograft
Assay: Antitumor activity in vivo, MGC-803 xenograft in nude mice
Parameters: species or system BALB/c nu/nu mice
Conditions: 50 mg/kg intraperitoneally twice a week
Description: The animals were housed in specific pathogen-free (SPF) conditions at Key Laboratory of Brain Functional Genomics, Ministry of Education, and were acclimatized for a week prior to use. […] When the tumors reached a mean group size of 100 ~ 150 mm^3, the mice were randomized into control and treatment groups to receive treatment accordingly. […] The tumor growth was recorded with the measurement of length (L) and width (W) by caliper every other day, and calculated as tumor volume (V) = L × W^2/2. Meanwhile, the body weights of mice were recorded. The tumor volume at day n was expressed as relative tumor volume (RTV) according to the following formula: RTV% = (TVn/TV0) ×100%, where TVn is the tumor volume at day n and TV0 is the tumor volume at day 0. The therapeutic effect of treatment was calculated with formula T/C (%) = mean RTV of the treated group/mean RTV of the control group × 100%. […] The tumor regression of individual mouse was defined as the tumor volume at the end was less than the tumor volume when treatment was initiated.

CCc1c2c(nc3ccc(OC(=O)N4CCC(N5CCCCC5)CC4)cc13)-c1cc3c(c(=O)n1C2)COC(=O)[C@]3(O)CC [Irinotecan, reference compound]
T/C (%): 8.04%
Inhibition rate (%) (by tumor weight): 96.2%
Body weight (g) End (mean ± SEM): 21.4 ± 0.2 g
Tumor weight (mean ± SEM, control 0.79 g): 0.03 ± 0.01 g
